Data published in US20250257055A1, “TERTIARY AMIDE DERIVATIVES SUBSTITUTED WITH 4-MEMBERED RING STRUCTURE” (Sumitomo Pharma Co., Ltd., priority 2024, published 2025).
In brackets after ≈: the same amount, converted by molar mass. Read-outs that look alike come from different tables or passages of the source.

Assays:
recombinant p300 = recombinant p300 (Homo sapiens (Human), UniProt Q09472); test: HAT activity inhibition experiment (SensoLyte HAT(p300) Assay Kit); format: biochemical; conditions: recombinant p300, histone H3 peptide, acetyl CoA
Description: The HAT activity inhibitory ability of HAT inhibitors was evaluated using SensoLyte HAT(p300) Assay Kit (ANASPEC, AS-72172). Specifically, 7.5 μL of the compound of Examples […] diluted with assay buffer was added to 7.5 μL of recombinant p300 solution diluted 10 times with assay buffer, and the mixture was incubated at room temperature for 10 minutes. 7.5 μL of acetyl CoA solution diluted 10 times with assay buffer and 15 μL of histone H3 peptide diluted 10 times with assay buffer were added thereto, and the mixture was incubated at 37° C. for 30 minutes. 37.5 μL of Stop Solution was added to stop the reaction. 75 μL of p300 Developer solution diluted 50 times with assay buffer was added, and the mixture was incubated at room temperature for 30 minutes under light-shielded conditions. The fluorescence at 513 nm when irradiated with 389 nm excitation light was measured using a multiplate reader.

G-401 cells = test: Cell proliferation inhibition experiment using G-401 cells; format: cell-based; conditions: Homo sapiens, 72 h, cultured for 3 days, CellTiter-Glo
Description: G-401 cells (derived from malignant rhabdoid tumor) were obtained from the American Type Culture Collection (ATCC). G-401 cells were cultured in McCoy's 5A medium containing 10% fetal bovine serum and 1% penicillin/streptomycin under conditions of 37° C. and 5% CO2.
(§1) 500 cells per well were seeded in a 384-well plate. One day after seeding, Examples 1 to 35 were added so that the final concentration of DMSO was 0.1%, and the cells were cultured for 3 days. After the culture was completed, the cell viability was measured using CellTiter-Glo Luminescent Cell Viability Assay (Promega, G7570).

Kuramochi cells = test: Cell proliferation inhibition experiment using Kuramochi cells; format: cell-based; conditions: 144 h, cultured for 6 days, CellTiter-Glo
Description: Kuramochi cells (derived from ovarian cancer) were obtained from JCRB (Japanese Collection of Research Bioresources) cell bank. Kuramochi cells were cultured in RPMI-1640 medium containing 10% fetal bovine serum and 1% penicillin/streptomycin under conditions of 37° C. and 5% CO2.
as §1, with “Examples 3, 7, 9, 10, 11, 20, 23” for “Examples 1”, “to 25, and 30 to 34” for “to 35”, “for 6” for “for 3”

Solubility test = format: physicochemical; conditions: for solubility: aqueous buffer, thermodynamic from solid
Description: The solubility was measured for Examples 7, 10, 20, 23, 24, and 30 to 34, Comparative Example 1, and Comparative Example 2. The test compound was added to 10 mmol/L glycine buffer (pH 2.0) and 10 mmol/L citrate buffer (pH 3.0), and the mixture was stored in a thermostatic chamber at 5° C. After standing overnight, the mixture was filtered through a membrane filter, and the concentration of the filtrate was measured by HPLC.

[1] = Membrane permeability test (PAMPA); format: in vitro ADME
Description: The membrane permeability of the test compound was tested by parallel artificial membrane permeability assay (PAMPA) as follows. 200 μL of System solution (pION Inc.) containing the test compound and 4 μL of GIT Lipid-0 (pION Inc.) were added to the donor plate. 200 μL of Acceptor Sink Buffer (pION Inc.) was added to the acceptor plate. Both plates were overlapped and incubated at 37° C. for 4 hours, after which the UV of the solutions on the acceptor side and donor side was measured using a UV plate reader (190-500 nm). Compounds with poor UV absorption were measured using LC-MS. The permeability coefficient Pe (10^−6 cm/sec) of the drug was calculated using the following equation.

G-401 xenograft = test: Drug efficacy evaluation by intravenous administration using G-401 xenograft mice model; format: in vivo
Description: G-401 cells (ATCC) were intradermally transplanted into 4-7-week-old BALB/cAnNCrj-nu/nu mice (CAnN.Cg-Foxn1/CrlCrlj, Jackson Laboratory Japan) at 5×10^5 cells/mouse. After confirming the engraftment of G-401 cells 10-40 days after transplantation, the test compound suspended in a solvent such as 10 mmol/L glycine buffer solution (pH 2.0) was administered via the tail vein at least once a week at a dose of 0.015-20 mg/kg. The tumor volume was measured over time from the start of administration, and the effect of tumor volume reduction by administration of the test compound was evaluated. The tumor volume can be calculated from the following equation using the minor axis and major axis of the tumor measured with an electronic caliper (Mitutoyo).
A control administration group administered with only a solvent such as 10 mmol/L glycine buffer solution (pH 2.0) and a test compound administration group were compared, and the antitumor effect was evaluated by calculating T/C from the following equation.

[2] = Pharmacokinetic study in mice; format: in vivo
Description: The test compound was administered to 7-week-old female BALB/c (BALB/cAnN CrlCrlj) mice intravenously (dosage: 1 mg/kg) in a 50% PEG solution (0.01 mol/L HCl) or orally (dosage: 10 mg/kg) in a 0.5% methylcellulose aqueous solution, and blood was collected at the following times:
Intravenous administration: 5 min, 15 min, 30 min, 1 hr, 2 hr, 4 hr, 6 hr, and 24 hr after administration
Oral administration: 15 min, 30 min, 1 hr, 2 hr, 4 hr, 6 hr, and 24 hr after administration
The collected blood was centrifuged at 3000 rpm×10 min using a refrigerated centrifuge set at 4° C., and the obtained plasma was measured by LC-MS. A calibration curve was prepared from the value (peak ratio) obtained by dividing the peak area of the test substance by the peak area of the internal standard substance in MS and the concentration of the plasma calibration curve sample. The concentration in the sample was calculated from the peak ratio and the calibration curve of each sample.

[3] = 10 mmol/L citrate buffer (pH 3.0), 5° C., overnight, read-out: Solubility in pH 3.0 buffer
[4] = 10 mmol/L glycine buffer (pH 2.0), 5° C., overnight, read-out: Solubility in pH 2.0 buffer
[5] = pH 5.0, 37° C., read-out: pH 5.0 Pe
[6] = pH 7.4, 37° C., read-out: pH 7.4 Pe
[7] = female, BALB/c (BALB/cAnN CrlCrlj), mouse, plasma, intravenous, 1 mg/kg
[8] = female, BALB/c (BALB/cAnN CrlCrlj), mouse, plasma, oral, 10 mg/kg

Chain of recombinant p300 (Q09472 whole entry): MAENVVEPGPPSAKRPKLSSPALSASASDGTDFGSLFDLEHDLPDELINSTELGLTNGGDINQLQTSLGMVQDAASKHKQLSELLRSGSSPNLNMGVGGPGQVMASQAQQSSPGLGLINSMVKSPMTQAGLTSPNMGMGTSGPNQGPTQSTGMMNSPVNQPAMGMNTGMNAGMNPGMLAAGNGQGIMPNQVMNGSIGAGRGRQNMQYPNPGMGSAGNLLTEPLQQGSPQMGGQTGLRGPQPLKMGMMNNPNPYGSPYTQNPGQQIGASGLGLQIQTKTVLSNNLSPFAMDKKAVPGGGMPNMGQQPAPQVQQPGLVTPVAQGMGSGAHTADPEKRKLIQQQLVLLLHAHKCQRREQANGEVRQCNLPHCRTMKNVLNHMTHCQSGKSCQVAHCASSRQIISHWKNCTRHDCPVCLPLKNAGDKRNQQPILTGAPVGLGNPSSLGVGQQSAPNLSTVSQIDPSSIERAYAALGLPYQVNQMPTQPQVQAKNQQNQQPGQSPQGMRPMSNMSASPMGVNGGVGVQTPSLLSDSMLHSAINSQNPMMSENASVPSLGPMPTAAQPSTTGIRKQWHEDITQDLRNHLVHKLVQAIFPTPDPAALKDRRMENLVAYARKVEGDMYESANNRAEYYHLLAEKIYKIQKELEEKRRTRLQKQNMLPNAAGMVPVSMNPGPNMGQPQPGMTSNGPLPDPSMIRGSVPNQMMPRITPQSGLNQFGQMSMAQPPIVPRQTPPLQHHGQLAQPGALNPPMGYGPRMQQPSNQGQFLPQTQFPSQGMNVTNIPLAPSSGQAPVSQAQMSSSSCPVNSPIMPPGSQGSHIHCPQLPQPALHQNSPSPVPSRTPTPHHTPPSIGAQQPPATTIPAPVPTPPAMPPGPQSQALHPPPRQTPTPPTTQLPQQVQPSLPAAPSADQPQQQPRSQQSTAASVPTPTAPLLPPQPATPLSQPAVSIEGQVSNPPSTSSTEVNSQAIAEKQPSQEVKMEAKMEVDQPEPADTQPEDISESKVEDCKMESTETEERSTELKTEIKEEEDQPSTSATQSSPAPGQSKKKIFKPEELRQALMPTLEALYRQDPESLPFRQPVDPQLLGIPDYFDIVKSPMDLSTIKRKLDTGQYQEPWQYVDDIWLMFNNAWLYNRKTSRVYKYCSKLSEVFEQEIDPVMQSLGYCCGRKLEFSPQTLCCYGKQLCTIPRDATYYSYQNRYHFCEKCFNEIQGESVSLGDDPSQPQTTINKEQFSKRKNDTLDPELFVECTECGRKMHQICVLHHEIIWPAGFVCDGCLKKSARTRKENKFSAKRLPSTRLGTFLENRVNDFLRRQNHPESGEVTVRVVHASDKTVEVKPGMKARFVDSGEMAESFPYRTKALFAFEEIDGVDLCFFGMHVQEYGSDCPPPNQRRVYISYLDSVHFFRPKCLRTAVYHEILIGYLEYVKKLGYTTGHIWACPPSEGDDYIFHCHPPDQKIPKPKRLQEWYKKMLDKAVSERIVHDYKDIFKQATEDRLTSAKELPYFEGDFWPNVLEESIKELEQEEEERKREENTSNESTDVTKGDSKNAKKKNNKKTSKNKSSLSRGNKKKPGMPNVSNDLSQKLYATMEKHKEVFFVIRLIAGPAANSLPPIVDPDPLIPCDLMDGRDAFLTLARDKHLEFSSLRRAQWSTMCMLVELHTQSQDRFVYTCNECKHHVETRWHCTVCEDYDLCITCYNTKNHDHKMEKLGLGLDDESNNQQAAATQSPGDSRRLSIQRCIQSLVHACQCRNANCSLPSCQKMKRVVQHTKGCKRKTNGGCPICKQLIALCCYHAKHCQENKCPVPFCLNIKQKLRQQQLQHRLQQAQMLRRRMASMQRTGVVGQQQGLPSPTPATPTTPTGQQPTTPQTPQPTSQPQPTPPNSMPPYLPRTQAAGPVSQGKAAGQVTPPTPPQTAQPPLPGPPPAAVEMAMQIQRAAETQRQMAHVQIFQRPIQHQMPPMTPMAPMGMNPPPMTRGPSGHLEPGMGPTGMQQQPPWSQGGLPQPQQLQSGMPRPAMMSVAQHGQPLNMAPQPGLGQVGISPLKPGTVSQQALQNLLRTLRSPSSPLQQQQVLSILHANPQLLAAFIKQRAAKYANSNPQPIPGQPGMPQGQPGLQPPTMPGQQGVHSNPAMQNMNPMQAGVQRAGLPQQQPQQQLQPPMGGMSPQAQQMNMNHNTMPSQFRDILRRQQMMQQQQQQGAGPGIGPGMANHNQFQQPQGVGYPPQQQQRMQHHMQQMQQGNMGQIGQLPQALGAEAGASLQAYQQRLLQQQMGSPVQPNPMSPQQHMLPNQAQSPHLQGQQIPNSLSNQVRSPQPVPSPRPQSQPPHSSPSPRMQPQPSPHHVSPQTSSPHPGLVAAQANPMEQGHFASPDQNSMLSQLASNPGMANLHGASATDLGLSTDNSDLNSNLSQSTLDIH

SMILES | IC50 (recombinant p300) | solubility (Solubility test; [3]) | solubility (Solubility test; [4]) | Papp at 4 h [1, 5] | Papp at 4 h [1, 6] | Solubility in pH 3.0 buffer (Solubility test; 10 mmol/L citrate buffer (pH 3.0), 5° C., overnight) | Solubility in pH 2.0 buffer (Solubility test; 10 mmol/L glycine buffer (pH 2.0), 5° C., overnight) | solubility (in words) (Solubility test; pH 2.0 and pH 3.0 buffers) | AUC [2, 7] | clearance [2, 7] | half-life [2, 7] | Vd ([2]; female, BALB/c (BALB/cAnN CrlCrlj), mouse, plasma, intravenous, 1 mg/kg, read-out: Vdss) | AUC [2, 8] | Cmax [2, 8] | BA ([2]; oral, 10 mg/kg) | IC50 (G-401 cells) | IC50 (Kuramochi cells) | antitumor effect (in words) (G-401 xenograft; G-401 xenograft model, intravenous administration) | T/C (G-401 xenograft; intravenous (tail vein), 0.015 mg/kg, 14 days)
CCn1cc(-c2ccc3c(c2)[C@H](F)C[C@]32NC(=O)N(CC(=O)N(Cc3ccc(F)cn3)C3(C(F)(F)F)CN(C)C3)C2=O)cn1 [Example 32, 2-[(1′S,3′R)-5′-(1-ethyl-1H-pyrazol-4-yl)-3′-fluoro-2,5-dioxo-2′,3′-dihydrospiro[imidazolidine-4,1′-inden]-1-yl]-N-[(5-fluoropyridin-2-yl)methyl]-N-[1-methyl-3-(trifluoromethyl)azetidin-3-yl]acetamide] | 0.4 nM | > 10000 µg/mL | > 10000 µg/mL | 15.4 ×10⁻⁶ cm/s | 26.6 ×10⁻⁶ cm/s | – | – | – | – | – | – | – | – | – | – | 5 nM | 53 nM | – | –
CCn1cc(-c2ccc3c(c2)[C@H](F)C[C@]32NC(=O)N(CC(=O)N(Cc3ccc(F)cc3)C3(C(F)(F)F)CN(C)C3)C2=O)cn1 [Example 30, 2-[(1′S,3′R)-5′-(1-ethyl-1H-pyrazol-4-yl)-3′-fluoro-2,5-dioxo-2′,3′-dihydrospiro[imidazolidine-4,1′-inden]-1-yl]-N-[(4-fluorophenyl)methyl]-N-[1-methyl-3-(trifluoromethyl)azetidin-3-yl]acetamide] | 1.5 nM | 1700 µg/mL (≈ 2.76 mM) | 8800 µg/mL (≈ 14.3 mM) | 30.6 ×10⁻⁶ cm/s | 35 ×10⁻⁶ cm/s | – | – | – | – | – | – | – | – | – | – | 2 nM | 10 nM | – | –
CC(C)n1cc(-c2ccc3c(c2)[C@H](F)C[C@]32NC(=O)N(CC(=O)N(Cc3ccc(F)cc3)C3(C(F)(F)F)CN(C)C3)C2=O)cn1 [Example 31, 2-{(1′S,3′R)-3′-fluoro-2,5-dioxo-5′-[1-(propan-2-yl)-1H-pyrazol-4-yl]-2′,3′-dihydrospiro[imidazolidine-4,1′-inden]-1-yl}-N-[(4-fluorophenyl)methyl]-N-[1-methyl-3-(trifluoromethyl)azetidin-3-yl]acetamide] | 1 nM | 1400 µg/mL (≈ 2.22 mM) | 7100 µg/mL (≈ 11.3 mM) | 31.3 ×10⁻⁶ cm/s | 34.9 ×10⁻⁶ cm/s | – | – | – | – | – | – | – | – | – | – | 1 nM | 8 nM | – | –

Further lines, with some results ahead:

IC50 (recombinant p300) | solubility (Solubility test; [3]) | solubility (Solubility test; [4]) | Papp at 4 h [1, 5] | Papp at 4 h [1, 6] | Solubility in pH 3.0 buffer (Solubility test; 10 mmol/L citrate buffer (pH 3.0), 5° C., overnight) | Solubility in pH 2.0 buffer (Solubility test; 10 mmol/L glycine buffer (pH 2.0), 5° C., overnight) | solubility (in words) (Solubility test; pH 2.0 and pH 3.0 buffers) | AUC [2, 7] | clearance [2, 7] | half-life [2, 7] | Vd ([2]; female, BALB/c (BALB/cAnN CrlCrlj), mouse, plasma, intravenous, 1 mg/kg, read-out: Vdss) | AUC [2, 8] | Cmax [2, 8] | BA ([2]; oral, 10 mg/kg) | SMILES | IC50 (G-401 cells) | IC50 (Kuramochi cells) | antitumor effect (in words) (G-401 xenograft; G-401 xenograft model, intravenous administration) | T/C (G-401 xenograft; intravenous (tail vein), 0.015 mg/kg, 14 days)
0.2 nM | 8100 µg/mL (≈ 12.6 mM) | > 10000 µg/mL | 24.4 ×10⁻⁶ cm/s | 34.9 ×10⁻⁶ cm/s | – | – | – | – | – | – | – | – | – | – | CN1CC(N(Cc2ccc(F)cn2)C(=O)CN2C(=O)N[C@]3(C[C@@H](F)c4cc(-c5cnn(C6CCC6)c5)ccc43)C2=O)(C(F)(F)F)C1 [Example 34, 2-[(1′S,3′R)-5′-(1-cyclobutyl-1H-pyrazol-4-yl)-3′-fluoro-2,5-dioxo-2′,3′-dihydrospiro[imidazolidine-4,1′-inden]-1-yl]-N-[(5-fluoropyridin-2-yl)methyl]-N-[1-methyl-3-(trifluoromethyl)azetidin-3-yl]acetamide] | 5 nM | 45 nM | – | –
– | 5 µg/mL (≈ 0.00808 mM) | 2 µg/mL (≈ 0.00323 mM) | 21.3 ×10⁻⁶ cm/s | 20.8 ×10⁻⁶ cm/s | 0.005 mg/mL | 0.002 mg/mL | extremely low solubility | – | – | – | – | – | – | – | CNC(=O)Cn1cc(-c2ccc3c(c2)[C@H](F)C[C@]32NC(=O)N(CC(=O)N(Cc3ccc(F)cc3)[C@@H](C)C(F)(F)F)C2=O)cn1 [Comparative Example 1, reference compound] | – | – | no antitumor effect | −1.1%
0.2 nM | 8600 µg/mL (≈ 13.6 mM) | > 10000 µg/mL | 22.6 ×10⁻⁶ cm/s | 27 ×10⁻⁶ cm/s | – | – | – | – | – | – | – | – | – | – | CC(C)n1cc(-c2ccc3c(c2)[C@H](F)C[C@]32NC(=O)N(CC(=O)N(Cc3ccc(F)cn3)C3(C(F)(F)F)CN(C)C3)C2=O)cn1 [Example 33, 2-{(1′S,3′R)-3′-fluoro-2,5-dioxo-5′-[1-(propan-2-yl)-1H-pyrazol-4-yl]-2′,3′-dihydrospiro[imidazolidine-4,1′-inden]-1-yl}-N-[(5-fluoropyridin-2-yl)methyl]-N-[1-methyl-3-(trifluoromethyl)azetidin-3-yl]acetamide] | 4 nM | 24 nM | – | –
16 nM | – | – | 16.2 ×10⁻⁶ cm/s | 20.6 ×10⁻⁶ cm/s | – | – | – | 575 ng·h/mL | 28.6 mL/min/kg | 1.1 h | 1.8 L/kg | 4350 ng·h/mL | 3770 ng/mL | 75.7% | O=C1N[C@]2(CCc3cc(-c4cnn(C5CN(C6COC6)C5)c4)ccc32)C(=O)N1CC(=O)N(Cc1ccc(F)cc1)C1(C(F)(F)F)COC1 [Example 1, N-[(4-fluorophenyl)methyl]-2-[(1′S)-5′-{1-[1-(oxetan-3-yl)azetidin-3-yl]-1H-pyrazol-4-yl}-2,5-dioxo-2′,3′-dihydrospiro[imidazolidine-4,1′-inden]-1-yl]-N-[3-(trifluoromethyl)oxetan-3-yl]acetamide] | 181 nM | – | – | –
